According to PubChem BioAssay (NCI):
Several values for one entry are separate records, joined by “and”; a condition that tells them apart may be missing. Equal entries are not always repeated.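 Briefly, cells in 96-well plates were exposed to five compound concentrations for 48 h, and endpoints were estimated by linear interpolation. GI50 is the concentration that inhibits growth by half. TGI: total growth inhibition.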

Columns and labels:
Experiment in all cases: DTP human tumour cell line panel, 48 h
[1] = tested on: DU-145 prostate
[2] = tested on: HCT-15 colon
[3] = tested on: MCF7 breast
[4] = tested on: NCI-H522 lung
[5] = tested on: OVCAR-5 ovarian
[6] = tested on: OVCAR-8 ovarian
[7] = tested on: RXF 393 renal
[8] = tested on: SF-295 CNS
[9] = tested on: UACC-257 melanoma
[10] = tested on: UO-31 renal

N#Cc1c(-c2ccc([N+](=O)[O-])cc2)c2c([nH]c1=O)-c1ccccc1CCC2
TGI [1]: > 100 µM
TGI [2]: > 100 µM
TGI [3]: > 100 µM
TGI [4]: > 100 µM
TGI [5]: > 100 µM
TGI [6]: > 100 µM
TGI [7]: 73.8 µM
TGI [8]: > 100 µM
TGI [9]: > 100 µM
TGI [10]: > 100 µM

O=C1OC(c2ccc(O)cc2)(c2ccc(O)cc2)c2ccc(Cl)c3cccc1c23 (tested in a mixture with another compound)
TGI [1]: > 75 µM
TGI [2]: 22.8 µM
TGI [3]: > 75 µM
TGI [5]: 20.8 µM
TGI [6]: 38.9 µM
TGI [7]: 27.4 µM
TGI [8]: 25.2 µM
TGI [9]: 70.1 µM
TGI [10]: > 75 µM

CC[C@@]1(O)CC(OC2CC(N3CCOCC3)C(O)C(C)O2)c2c(O)c3c(c(O)c2[C@H]1O)C(=O)c1cccc(O)c1C3=O (stereo partly drawn)
TGI [1]: 0.852 µM
GI50 [2]: 35.8 nM
TGI [2]: 1.44 µM and 3.18 µM
GI50 [3]: 16.1 nM
TGI [3]: 2.58 µM and 13.8 µM
GI50 [4]: 55 nM
TGI [4]: 0.906 µM and 0.407 µM
GI50 [5]: 192 nM
TGI [5]: 2.17 µM and 0.821 µM
GI50 [6]: 28.5 nM
TGI [6]: 1.07 µM and 5.5 µM
TGI [7]: 0.715 µM and 1.15 µM
GI50 [8]: 29.2 nM
TGI [8]: 0.526 µM and 0.357 µM
GI50 [9]: 108 nM
TGI [9]: 1.34 µM and 0.69 µM
GI50 [10]: 437 nM and 828 nM
TGI [10]: 1.57 µM and 3.28 µM

Cc1csc2nc(-c3cccc([N+](=O)[O-])c3)c(/C=N/N=C(N)N)n12
TGI [1]: 4.28 µM
TGI [2]: 3.71 µM
TGI [4]: 3.26 µM
TGI [5]: 2.98 µM
TGI [6]: 3.2 µM
TGI [8]: 3.12 µM
TGI [9]: 3.22 µM
TGI [10]: 2.68 µM

Cc1cc(C)c2c(=O)n(CC(O)CN(Cc3ccccc3)CC(O)Cn3sc4nc(C)cc(C)c4c3=O)sc2n1 (stereo not drawn)
TGI [1]: 31.7 µM
TGI [2]: 34.4 µM
TGI [3]: 32.1 µM
TGI [4]: 22 µM
TGI [5]: 36.4 µM
TGI [6]: 34.5 µM
TGI [7]: 33.6 µM
TGI [8]: 61.9 µM
TGI [9]: 31.7 µM
TGI [10]: 31.6 µM

C[n+]1c2ccccc2c(N=[N+]=[N-])c2ccccc21
TGI [1]: > 10 µM
TGI [2]: > 10 µM
TGI [3]: > 10 µM
TGI [4]: > 10 µM
TGI [5]: > 10 µM
TGI [6]: > 10 µM
TGI [7]: > 10 µM
TGI [8]: > 10 µM
TGI [9]: > 10 µM

N#CC1(CCCI)CCCC1
TGI [2]: > 100 µM
TGI [4]: 28.7 µM
TGI [5]: 51.6 µM
TGI [6]: > 100 µM
TGI [7]: 23 µM
TGI [8]: 94.7 µM
TGI [9]: > 100 µM
TGI [10]: > 100 µM

O=C(/C=C/c1ccc([N+](=O)[O-])cc1)N1CCN(CCOC(c2ccc(F)cc2)c2ccc(F)cc2)CC1
TGI [1]: > 100 µM
TGI [2]: > 100 µM
TGI [3]: > 100 µM
TGI [4]: > 100 µM
TGI [5]: > 100 µM
TGI [6]: > 100 µM
TGI [7]: > 100 µM
TGI [8]: > 100 µM
TGI [9]: > 100 µM
TGI [10]: 96.4 µM

Cc1[nH]c(C(=O)Nc2ccc(C(=O)NCCN)cc2OC(C)C)c(Cl)c1Cl
GI50 [1]: 1690 nM
TGI [1]: 3.14 µM
GI50 [5]: 1670 nM
TGI [5]: 3.11 µM
GI50 [6]: 2230 nM
TGI [6]: 5.43 µM
GI50 [7]: 1710 nM
TGI [7]: 3.36 µM
GI50 [8]: 1760 nM
TGI [8]: 3.23 µM
GI50 [10]: 1540 nM
TGI [10]: 2.96 µM

c1ccc(CSC(SCc2ccccc2)c2cccc3ccccc23)cc1
TGI [1]: > 10 µM
TGI [2]: > 10 µM
TGI [3]: > 10 µM
TGI [4]: > 10 µM
TGI [5]: > 10 µM
TGI [6]: > 10 µM
TGI [7]: > 10 µM
TGI [8]: > 10 µM
TGI [10]: > 10 µM

COc1ccccc1C#C/C=C\C#Cc1ccccc1C#N
TGI [1]: > 100 µM
TGI [2]: > 100 µM
TGI [3]: 28 µM
TGI [4]: 25.7 µM
TGI [5]: > 100 µM
TGI [6]: 34.4 µM
TGI [7]: 83.5 µM
TGI [8]: 47.1 µM
TGI [9]: 94.6 µM
TGI [10]: 67.2 µM

CC(C)CCN(CCC(C)C)CC(=O)Nc1ccc(S(=O)(=O)c2ccc(NC(=O)CN(CCC(C)C)CCC(C)C)cc2)cc1
GI50 [1]: 2290 nM
TGI [1]: 6.16 µM
GI50 [2]: 1290 nM
TGI [2]: 3.89 µM
GI50 [3]: 1310 nM
TGI [3]: 11 µM
GI50 [4]: 1530 nM
TGI [4]: 3.2 µM
GI50 [5]: 2070 nM
TGI [5]: 5.46 µM
GI50 [6]: 2890 nM
TGI [6]: > 100 µM
GI50 [7]: 1790 nM
TGI [7]: 5.87 µM
GI50 [8]: 3860 nM
TGI [8]: 16.5 µM
GI50 [9]: 3010 nM
TGI [9]: 13.6 µM
GI50 [10]: 2070 nM
TGI [10]: 12.8 µM

Nc1ccc(Oc2ccc(C34CC5CC(C3)CC(c3ccc(Oc6ccc(N)cc6C(F)(F)F)cc3)(C5)C4)cc2)c(C(F)(F)F)c1
TGI [1]: > 100 µM
TGI [2]: > 100 µM
TGI [3]: 33.8 µM
TGI [4]: 30.3 µM
TGI [5]: 70.3 µM
TGI [6]: 29.5 µM
TGI [7]: 25.1 µM
TGI [8]: 79.9 µM
TGI [9]: 40.3 µM
TGI [10]: > 100 µM

CCOC(=O)C1=C(C(=O)OCC)SC2(S1)C(C(=O)OCC)=C(C(=O)OCC)Sc1c2ssc1=O
TGI [1]: 2.2 µM
TGI [2]: 2.72 µM
TGI [3]: 3.5 µM
TGI [4]: 4.46 µM
TGI [5]: 12.4 µM
TGI [6]: 3.31 µM
TGI [7]: 2.47 µM
TGI [8]: 28.8 µM
TGI [9]: 3.1 µM
TGI [10]: 3.25 µM

O=C(O)c1cc2ccccc2c(N=Nc2ccc(S(=O)(=O)Nc3ccccn3)cc2)c1O
TGI [1]: > 100 µM
TGI [2]: > 100 µM
TGI [3]: > 100 µM
TGI [4]: > 100 µM
TGI [5]: > 100 µM
TGI [6]: > 100 µM
TGI [7]: > 100 µM
TGI [8]: > 100 µM
TGI [9]: > 100 µM
TGI [10]: > 100 µM

Cc1c(-c2ccccc2)c(C#N)c2nnn(-c3ccc(Cl)cc3)c(=O)n12
TGI [1]: > 100 µM
TGI [2]: > 100 µM
TGI [3]: > 100 µM
TGI [4]: 26.7 µM
TGI [5]: > 100 µM
TGI [6]: > 100 µM
TGI [7]: > 100 µM
TGI [8]: > 100 µM
TGI [9]: > 100 µM
TGI [10]: > 100 µM

NC1CCN(c2nc3ccccc3c3c2CCCC3)CC1
TGI [1]: 24.3 µM
TGI [2]: 17.7 µM
TGI [3]: 8.6 µM
TGI [4]: 19.3 µM
TGI [5]: 19 µM
TGI [6]: 32.8 µM
TGI [7]: 11.2 µM
TGI [8]: 26.4 µM
TGI [9]: 4.31 µM
TGI [10]: 12.2 µM

COC(=O)c1c(O)ccc2c1c1c(n2CCc2ccc(OC)c(OC)c2)C(=O)c2ccccc2C1=O
TGI [1]: 29.5 µM
TGI [2]: 29.3 µM
TGI [3]: 45.2 µM
TGI [4]: 14 µM
TGI [5]: 34.1 µM
TGI [6]: 32.6 µM
TGI [7]: 39.5 µM
TGI [8]: 38 µM
TGI [9]: 35.8 µM
TGI [10]: 34.6 µM

O=C1N[C@H]2C(=O)c3c(Br)sc(Br)c3[C@H]2O1
TGI [1]: 28.9 µM
TGI [2]: 4 µM
TGI [3]: 25.4 µM
TGI [4]: 3.22 µM
TGI [5]: 34.3 µM
TGI [6]: 13 µM
TGI [7]: 10.4 µM
TGI [8]: 37 µM
TGI [9]: 21.7 µM
TGI [10]: 4.22 µM

Cc1[nH]c2ncn3[nH]c(=S)nc3c2c1Cc1ccccc1
TGI [1]: > 100 µM
TGI [2]: > 100 µM
TGI [3]: > 100 µM
TGI [4]: > 100 µM
TGI [5]: > 100 µM
TGI [6]: > 100 µM
TGI [7]: > 100 µM
TGI [8]: > 100 µM
TGI [9]: > 100 µM
TGI [10]: > 100 µM

O=C1Nc2cccc(Cl)c2/C1=C\c1cccnc1
TGI [1]: 35.9 µM
TGI [2]: > 100 µM
TGI [3]: 18.1 µM
TGI [4]: 21.6 µM
TGI [5]: 16.1 µM
TGI [6]: 20.1 µM
TGI [7]: 7.48 µM
TGI [8]: 34.6 µM
TGI [9]: 16.8 µM
TGI [10]: 18.5 µM

CC1(C)CN(CC(=O)O)CC(Cc2ccc(OCC(=O)O)cc2)N(CC(=O)O)CC(C)(C)SS1 (stereo not drawn)
TGI [1]: > 100 µM
TGI [2]: > 100 µM
TGI [3]: > 100 µM
TGI [4]: > 100 µM
TGI [5]: > 100 µM
TGI [6]: > 100 µM
TGI [7]: > 100 µM
TGI [8]: > 100 µM
TGI [9]: > 100 µM
TGI [10]: > 100 µM

COc1cc(/C=N/NC(=O)c2c(Cl)c(Cl)c(Cl)c(Cl)c2-c2nc3ccc(C(=O)c4ccccc4)cc3[nH]2)ccc1O
TGI [1]: > 100 µM
TGI [2]: > 100 µM
TGI [3]: > 100 µM
TGI [4]: > 100 µM
TGI [5]: > 100 µM
TGI [6]: > 100 µM
TGI [7]: > 100 µM
TGI [8]: > 100 µM
TGI [9]: > 100 µM
TGI [10]: > 100 µM

O=C(CSCC(=O)N/N=C\c1ccc(F)cc1F)N/N=C\c1ccc(F)cc1F
TGI [1]: > 100 µM
TGI [2]: > 100 µM
TGI [3]: > 100 µM
TGI [4]: > 100 µM
TGI [6]: > 100 µM
TGI [7]: > 100 µM
TGI [8]: > 100 µM
TGI [9]: > 100 µM
TGI [10]: > 100 µM

CC(C)CNC1=NCC(C)S1 (stereo not drawn)
TGI [1]: > 100 µM
TGI [2]: > 100 µM
TGI [3]: > 100 µM
TGI [4]: > 100 µM
TGI [5]: > 100 µM
TGI [7]: > 100 µM
TGI [8]: > 100 µM
TGI [9]: > 100 µM
TGI [10]: > 100 µM

Cc1ncc(C(=O)Nc2ccc(CN3CCN(C)CC3)c(C(F)(F)F)c2)cc1C#Cc1cnc(N)c2ccc(C#N)cc12
GI50 [1]: 15.7 nM
TGI [1]: 2.34 µM
GI50 [2]: 48.5 nM
TGI [2]: 1.5 µM
GI50 [3]: 2040 nM
TGI [3]: > 100 µM
GI50 [4]: 78.8 nM
TGI [4]: > 100 µM
GI50 [8]: 54.5 nM
TGI [8]: 33.1 µM
GI50 [9]: 53.8 nM
TGI [9]: 1.61 µM

c1ccc(/C(=N\Nc2nc3ccccc3[nH]2)c2ccccn2)cc1
TGI [1]: > 100 µM
TGI [2]: 5.83 µM
TGI [3]: 5.45 µM
TGI [4]: 0.69 µM
TGI [5]: 4.47 µM
TGI [6]: 1.05 µM
TGI [7]: 14.4 µM
TGI [8]: 9.26 µM
TGI [9]: 4.63 µM
TGI [10]: 6.73 µM

C[C@]12CC[C@H]3[C@@H](CC=C4C[C@@H](O)CC[C@@]43C)[C@@H]1C/C(=C\c1ccncc1)[C@@H]2O
TGI [1]: 49.6 µM
TGI [2]: 58.9 µM
TGI [3]: 59 µM
TGI [4]: 57.7 µM
TGI [5]: > 100 µM
TGI [6]: 39.8 µM
TGI [7]: 38 µM
TGI [8]: 35.5 µM
TGI [9]: 40.4 µM
TGI [10]: > 100 µM
